# Experimental data as given in publication PMC12514245, “Impaired migration and lung invasion of human melanoma by a novel small molecule targeting the transmembrane domain of death receptor p75^NTR” (EMBO Molecular Medicine, 2025).
# Values joined by “and” are separate entries in the source; they are usually repeats but may differ in a detail not shown here. Identical values can stand only once.
# Columns and labels:
# A875 NT cells = assay: Wound healing cell motility assay, A875 NT; type: cell-based, human; conditions: for Wound area (Fold), Mean / Wound area (Fold), individual replicates: 10uM
# Experimental: For wound healing assay, cells were grown until confluency and subjected to a wound across the cell mono-layer. Cells were then incubated with serum-free media either with DMSO or a small molecule (with or without 5 µM Q_VD_poH) and imaged at specific time-points. Cell migration is reflected as fold change in wound area over time.
# AS19 E. coli = assay: Bacterial toxicity (OD630) in the AraTM assay; type: cell-based; conditions: compared with Div17E5
# [1] = tested on: A875-shp75 melanoma xenograft; assay: Melanoma lung invasion assay, A875-shp75, delayed treatment 3 weeks after cell injection; type: in vivo, SCID mice; conditions: group average
# Experimental: (§1) Finally, we investigated whether delayed administration of Np75-4A22 was able to affect engraftment and growth of metastatic tumors in the lung. To this end, drug treatment (orally at 200 mg/kg) was initiated 3 weeks after intravenous injection of A875-NT or A875-shp75 cells in female SCID mice and continued for additionally 4 weekly cycles (5 days on/2 days off) as above (Fig. 8E). Metastatic spread to the lungs was monitored weekly by bioluminescent imaging of luciferase-expressing melanoma cells. […] We conclude that Np75-4A22 can be efficacious at reducing the spread and seeding of melanoma cells in the lung when administered either before or after cell implantation.
# (§2) Eight-week-old female SCID mice (Charles River Laboratories, Shrewsbury, MA, USA) were housed in groups of three to five and maintained on a 12-h light/dark schedule with a temperature of 22 °C ± 1 °C and a relative humidity of 50% ± 5%. Food and water were available ad libitum. This research study was reviewed and approved by the University of Calgary Animal Care Committee (AC22-0054) and McGill University (AUP-JGH-8269) and adheres to established ethical principles and guidelines. A875-GFPLuc (A875-NT) or A875-GFPLuc shp75 (A875-shp75) cells harvested using Puck’s EDTA were resuspended in PBS and injected intravenously into SCID mice (5 × 10^5 cells/200 μl per mouse). Np75-4A22 was dissolved in 0.5% sodium carboxymethyl cellulose (NaCMC) in reverse osmosis H2O and administered by oral gavage at 200 mg/kg/day starting one day prior to intravenous (tail vein) injection of tumor cells and continued for 3 1-week cycles (cycle: 5 days on drug, 2 days off drug). Tumor spread to the lung was monitored weekly by luciferase activity using the Xenogen IVIS-200 Optical in vivo luciferase imaging system as described previously (Lun et al, [2016]) and by immunohistochemistry (IHC) at designated time points. IHC was performed after formalin fixation, paraffin embedding and sectioning of the lungs, using a human-specific mouse polyclonal nucleolin antibody (1:500 dilution) and detected using Dako liquid DAB+ Substrate Chromogen System (Dako: k3468, California, USA) followed by a hematoxylin counterstain (Sigma, Oakville, ON, Canada). Sections were mounted and imaged on an Olympus phase contrast microscope (Olympus Life Science, Tokyo, Japan). For immunofluorescence, sections were stained with anti-human nucleolin and anti-human p75NTR antibodies (1:1000 dilution), subsequently detected with 1:200 dilutions of Alexa Fluor™ 488 Goat anti-Mouse IgG (H + L) Highly Cross-Adsorbed Secondary Antibody and Alexa Fluor™ 568 Goat anti-Rabbit IgG (H + L) Cross-Adsorbed Secondary Antibody. Sections were further stained with DAPI to detect all nuclei. Between each treatment, TBS Automation Wash Buffer (Biocare Medical TWB945M) was employed. Images were taken with LSM800 confocal microscope and ZEN system.
# [2] = tested on: A875-NT melanoma xenograft; assay: Melanoma lung invasion assay, A875-NT, delayed treatment 3 weeks after cell injection; type: in vivo, SCID mice; conditions: A875-NT, group average
# Experimental: as §1, §2
structure (smiles),measurement,setting,value
CN(C)c1cccc(-c2cncc(Nc3ccc(Br)c(Cl)c3Cl)n2)c1 [MS_63],"wound healing assay, comparison of Div17E5, MS_18 and MS_63",A875 NT cells; 10 µM,lower potency
same,"Wound area (Fold), Mean",A875 NT cells; 0 hours,1 Fold
same,"Wound area (Fold), individual replicates",A875 NT cells; 0 hours,1.000 Fold
same,"Wound area (Fold), Mean",A875 NT cells; 3 hours,0.912 Fold
same,"Wound area (Fold), individual replicates",A875 NT cells; 3 hours,0.916 Fold and 0.908 Fold
same,"Wound area (Fold), Mean",A875 NT cells; 6 hours,0.874 Fold
same,"Wound area (Fold), individual replicates",A875 NT cells; 6 hours,0.869 Fold and 0.879 Fold
same,"Wound area (Fold), Mean",A875 NT cells; 9 hours,0.827 Fold
same,"Wound area (Fold), individual replicates",A875 NT cells; 9 hours,0.786 Fold and 0.869 Fold
same,"Wound area (Fold), Mean",A875 NT cells; 12 hours,0.792 Fold
same,"Wound area (Fold), individual replicates",A875 NT cells; 12 hours,0.755 Fold and 0.828 Fold
same,"Wound area (Fold), Mean",A875 NT cells; 15 hours,0.762 Fold
same,"Wound area (Fold), individual replicates",A875 NT cells; 15 hours,0.728 Fold and 0.796 Fold
same,"Wound area (Fold), Mean",A875 NT cells; 18 hours,0.73 Fold
same,"Wound area (Fold), individual replicates",A875 NT cells; 18 hours,0.704 Fold and 0.756 Fold
same,"Wound area (Fold), Mean",A875 NT cells; 21 hours,0.71 Fold
same,"Wound area (Fold), individual replicates",A875 NT cells; 21 hours,0.683 Fold and 0.737 Fold
same,"Wound area (Fold), Mean",A875 NT cells; 24 hours,0.697 Fold
same,"Wound area (Fold), individual replicates",A875 NT cells; 24 hours,0.666 Fold and 0.729 Fold
same,"bacterial toxicity, as assessed by OD630",AS19 E. coli,somewhat lower bacterial toxicity
Cc1cccc(-c2cncc(Nc3ccc(Br)c(Cl)c3Cl)n2)c1C [4A-22],"Average Photons/second/week, wk2",[1]; wk2,9.88E+04 Photons/second
same,"Average Photons/second/week, wk3",[1]; wk3,1.46E+05 Photons/second
same,"Average Photons/second/week, wk4",[1]; wk4,1.10E+05 Photons/second
same,"Average Photons/second/week, wk5",[1]; wk5,2.77E+05 Photons/second
same,"Average Photons/second/week, wk6",[1]; wk6,4.60E+05 Photons/second
same,"Average Photons/second/week, wk7",[1]; wk7,1.10E+06 Photons/second
same,"Average Photons/second/week, wk2",[2]; wk2,77712.5 Photons/second
same,"Average Photons/second/week, wk3",[2]; wk3,189000 Photons/second
same,"Average Photons/second/week, wk4",[2]; wk4,170125 Photons/second
same,"Average Photons/second/week, wk5",[2]; wk5,304375 Photons/second
same,"Average Photons/second/week, wk6",[2]; wk6,845350 Photons/second
same,"Average Photons/second/week, wk7",[2]; wk7,3166750 Photons/second
